pIC50: −log10 of the molar value.
Assays:
[1] = biological target: T1, PI3Kδ kinase (Homo sapiens, UniProt O00329); experiment: PI3Kδ kinase assay (ADP-Glo, Reaction Biology); type: biochemical
T1 construct: purchased Reaction Biology Corporation (assay service)
Method: IC50 values of compounds against the PI3Kδ kinase were determined by an assay performed by Reaction Biology Corporation (Malvern, Pa.). Briefly, this assay was conducted in buffer (Tris-HCl 40 mM (pH7.5), Orthovanadate 3 mM, MgCl2 20 mM, DTT 2 mM, CHAPS 0.05%, DMSO 1%). PI3Kδ kinase was added to the reaction solution and mixed gently. The test compounds in 100% DMSO (at specific solutions) were mixed with the kinase reaction mixture to achieve the final compounds at pre-defined concentrations (e.g., range −0.5 nM to 100 μM) by Acoustic technology (Echo550; nanoliter range). After incubating for 10 min at room temp, ATP was added into the reaction mixture to initiate the reaction followed by a 30-min incubation at 30° C. After quenching the reaction with ADP-Glo reagent, the plates were incubated for 40 min. The Detection Mixture was added, and the plate was incubated for an additional 30 min. At the end of incubation, luminescence was measured. For data analysis, the luminescence was converted into μM ADP production based on ADP standard curves. The nonlinear regression to obtain the standard curve and IC50 values was performed using GraphPad Prism (GraphPad Software, Inc., San Diego, Calif.).

[2] = biological target: T2, CDK6 (Homo sapiens, UniProt Q00534); experiment: In vitro kinase inhibition IC50, luminescence (ADP Glo), retinoblastoma substrate; type: biochemical; conditions: read-out: CDK6/D1 IC50
T2 construct: purchased Invitrogen PR8422B
T2 sequence (Q00534 whole entry): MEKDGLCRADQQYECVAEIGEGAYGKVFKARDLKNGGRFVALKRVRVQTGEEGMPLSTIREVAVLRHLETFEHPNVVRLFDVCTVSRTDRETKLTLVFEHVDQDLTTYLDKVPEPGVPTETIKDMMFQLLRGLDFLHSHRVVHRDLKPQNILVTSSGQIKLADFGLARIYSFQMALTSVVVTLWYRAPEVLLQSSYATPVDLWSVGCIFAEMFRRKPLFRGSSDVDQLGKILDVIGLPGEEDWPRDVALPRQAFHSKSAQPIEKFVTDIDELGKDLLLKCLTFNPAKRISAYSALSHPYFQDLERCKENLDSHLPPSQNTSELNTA
T2 sequence (P24385 whole entry partner): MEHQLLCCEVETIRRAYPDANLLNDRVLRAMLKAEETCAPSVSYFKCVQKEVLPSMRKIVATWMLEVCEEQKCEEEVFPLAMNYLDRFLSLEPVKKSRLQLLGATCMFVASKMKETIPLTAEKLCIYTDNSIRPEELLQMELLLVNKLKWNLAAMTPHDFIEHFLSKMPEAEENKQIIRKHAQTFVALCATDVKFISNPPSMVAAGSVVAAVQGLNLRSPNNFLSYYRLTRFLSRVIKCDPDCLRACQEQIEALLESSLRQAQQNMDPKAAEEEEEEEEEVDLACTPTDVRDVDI
Method: (§1) IC50 values of compounds against CDK4 and CDK6 were determined by luminescence using retinoblastoma as substrate. Kinase assays were performed in kinase buffer (#PV6135, Invitrogen Life Technologies, Grand Island, N.Y.) where total reaction volume was […] in 96-well half area white plates (#3693, Costar). One microliter of 25×test compounds at specific concentrations (e.g., final concentration range: 0.1 nM-200 nM) was mixed with 10 μL of 2.5×kinase (5 nM, CDK4 #PR8064A and CDK6 #PR8422B, Invitrogen) solution and 14 μL of 4× mixed solution with retinoblastoma (1 μM, #12-439, EMD Millipore, Hayward, Calif.) and ATP (25 μM, #V7038, Promega, Madison, Wis.). The plates were covered and incubated for 2H at room temperature. At the end of incubation, 25 μL of stop solution—ADP Glo reagent (#V7002, Promega) was added. After incubation for 45 min at room temperature, 50 μL of detection reagent (##V7002, Promega) was added. Readings were taken at 15 min and 45 min incubation after detection reagent was added in a Synergy Neo Plate reader (BioTek, Winooski, Vt.) at single excitation of 340 nm and Dual emission at 495 nm and 520 nm respectively. The following equations were used in the CDK4 and CDK6 assay data analysis. Percent inhibition (100-% activity) was fitted to the “four-parameter logistic model” in XLfit for determination of IC50 values.
(§2) Percent conversion of enzyme=100−{(RLUNo Drug−No enzyme*100)/RLUNo drug+Enzyme} Equation 1:
(§3) Percent conversion at each data point=100−{(RLUAverage(Drug+enzyme)*100)!RLUNo drug+Enzyme} Equation 2:
(§4) Percent Inhibition=100*(% Conversioneach data point/% ConversionEnzyme) Equation 3: […]

[3] = biological target: T3, CDK4 (Homo sapiens, UniProt P11802); experiment: as above; type: biochemical; conditions: read-out: CDK4/D1 IC50
T3 construct: purchased Invitrogen PR8064A
T3 sequence (P11802 whole entry): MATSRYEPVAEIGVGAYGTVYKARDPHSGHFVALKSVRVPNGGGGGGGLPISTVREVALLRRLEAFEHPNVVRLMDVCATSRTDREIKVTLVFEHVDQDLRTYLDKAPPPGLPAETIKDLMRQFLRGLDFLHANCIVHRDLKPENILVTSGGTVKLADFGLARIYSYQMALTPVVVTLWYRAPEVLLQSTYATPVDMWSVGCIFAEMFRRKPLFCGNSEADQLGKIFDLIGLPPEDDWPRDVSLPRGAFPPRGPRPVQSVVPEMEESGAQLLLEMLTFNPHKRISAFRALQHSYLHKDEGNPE
T3 sequence (P24385 whole entry partner): as the sequence (P24385 whole entry partner) above
Method: as §1, §2, §3, §4

[4] = tested on: DU4475 breast carcinoma cells; experiment: Cancer cell proliferation assay, single agent (cell viability); type: cell-based; conditions: Homo sapiens, DU-4475; Table 4; Rb negative; treatment 144 Hr with medium change at 72 Hr; Cell Titer-Glo or resazurin
Method: (§5) The effects of test compounds were studied in three breast cancer cell lines of different subtype. The cancer cells (Table 3) were harvested during the logarithmic growth period and counted. Cell concentrations were adjusted to the appropriate number with respective medium and 90 μL cell suspensions were added to 96-well plates. After cells were seeded, the plates were shaken gently to distribute cells evenly and incubated at 37° C., 5% CO2 on day 1.
(§6) Cells were treated with test compounds at 7 to 9 concentrations within a desired concentration range (e.g. 1.1 nM-10 μM) on day 2 by series diluting the test compound stock solution (10 mM in DMSO) with culture medium. Treatment duration was 24 Hr for BT-549 cells and 144 Hr (with a medium change at 72 Hr) for MCF-7 and DU4475 cells. Cell viability was assessed by Cell Titer-Glo® as recommended by Promega (Cat. No.: G7572), or by resazurin assay (Sigma Aldrich, Cat. No.: R7017) post treatment.
(§7) Cell viability data were plotted using GraphPad Prism (GraphPad Software, Inc., San Diego, Calif.). In addition, a nonlinear regression model with a sigmoidal dose response and variable slope within GraphPad Prism was used to calculate the IC50 value of individual test compounds.

[5] = tested on: MCF-7 breast adenocarcinoma cells; experiment: as above; type: cell-based; conditions: Homo sapiens, MCF7, Table 4; Rb positive; treatment 144 Hr with medium change at 72 Hr; Cell Titer-Glo or resazurin
Method: as §5, §6, §7

[6] = biological target: T4, FMS kinase (Homo sapiens, UniProt P07333); experiment: LanthaScreen Eu Kinase Binding Assay (ATP, fluorescent-PolyGT substrate); type: biochemical
T4 construct: purchased Invitrogen (Life Technologies)
T4 sequence (P07333 20-972): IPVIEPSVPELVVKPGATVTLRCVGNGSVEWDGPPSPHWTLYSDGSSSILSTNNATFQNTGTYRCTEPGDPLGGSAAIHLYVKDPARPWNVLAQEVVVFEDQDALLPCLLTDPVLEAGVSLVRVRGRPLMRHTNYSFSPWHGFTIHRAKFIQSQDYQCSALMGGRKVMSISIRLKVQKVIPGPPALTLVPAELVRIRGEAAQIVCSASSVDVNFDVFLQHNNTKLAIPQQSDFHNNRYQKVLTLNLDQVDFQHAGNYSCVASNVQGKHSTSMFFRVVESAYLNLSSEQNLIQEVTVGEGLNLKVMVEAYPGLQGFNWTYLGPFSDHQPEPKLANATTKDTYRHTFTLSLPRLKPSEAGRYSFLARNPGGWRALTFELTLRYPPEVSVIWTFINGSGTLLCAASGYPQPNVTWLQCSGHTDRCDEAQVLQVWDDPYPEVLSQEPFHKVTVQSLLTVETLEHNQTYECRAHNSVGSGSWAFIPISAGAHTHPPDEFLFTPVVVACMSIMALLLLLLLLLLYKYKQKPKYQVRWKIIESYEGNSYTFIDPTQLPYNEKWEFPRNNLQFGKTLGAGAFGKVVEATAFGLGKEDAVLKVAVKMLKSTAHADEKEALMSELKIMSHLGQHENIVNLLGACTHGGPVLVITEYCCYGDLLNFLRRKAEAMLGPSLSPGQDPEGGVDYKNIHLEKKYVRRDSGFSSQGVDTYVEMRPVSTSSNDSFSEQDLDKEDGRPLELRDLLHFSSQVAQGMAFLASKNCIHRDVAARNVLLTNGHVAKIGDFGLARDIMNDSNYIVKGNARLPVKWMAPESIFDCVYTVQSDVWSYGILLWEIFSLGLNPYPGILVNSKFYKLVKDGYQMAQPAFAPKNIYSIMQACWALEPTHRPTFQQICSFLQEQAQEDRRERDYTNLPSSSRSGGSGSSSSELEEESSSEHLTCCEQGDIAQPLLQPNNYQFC
Method: IC50 values of compounds against FMS kinase were determined by LanthaScreen™ Eu Kinase Binding Assay at Invitrogen (Life Technologies Grand Island, N.Y.) where total reaction volume was 10 μL in low-volume 384-well plates (#4511, Corning). Serially diluted compounds (3-fold) were incubated with kinase (1.25 nM) for 10 min, following which a mixture of ATP (10 μM) (#A1852, Sigma, St-Louis, Mo.) and fluorescent-PolyGT substrate (200 nM) (#PV3610, Invitrogen, Life Technologies Grand Island, N.Y.) was added and incubated in dark at room temperature for 1H. After 1H, 10 μL stop solution containing Terbium labeled antibody (4 nM) (#PV3529, Invitrogen, Life Technologies Grand Island, N.Y.) and EDTA (#E5134, Sigma, St-Louis, Mo.) (20 mM) in TR-FRET dilution buffer (#PV3574, Invitrogen, Life Technologies Grand Island, N.Y.) was added. Readings were taken in a Synergy Neo Plate reader (BioTek, Winooski) at single excitation of 340 nm and Dual emission at 495 nm and 520 nm respectively.
The following equations were used for LanthaScreen Eu Kinase Binding Assay Data Analysis. Percent inhibition (100-% activity) was fitted to the “four-parameter logistic model” in XLfit for determination of IC50 values.

T1 sequence (O00329 whole entry): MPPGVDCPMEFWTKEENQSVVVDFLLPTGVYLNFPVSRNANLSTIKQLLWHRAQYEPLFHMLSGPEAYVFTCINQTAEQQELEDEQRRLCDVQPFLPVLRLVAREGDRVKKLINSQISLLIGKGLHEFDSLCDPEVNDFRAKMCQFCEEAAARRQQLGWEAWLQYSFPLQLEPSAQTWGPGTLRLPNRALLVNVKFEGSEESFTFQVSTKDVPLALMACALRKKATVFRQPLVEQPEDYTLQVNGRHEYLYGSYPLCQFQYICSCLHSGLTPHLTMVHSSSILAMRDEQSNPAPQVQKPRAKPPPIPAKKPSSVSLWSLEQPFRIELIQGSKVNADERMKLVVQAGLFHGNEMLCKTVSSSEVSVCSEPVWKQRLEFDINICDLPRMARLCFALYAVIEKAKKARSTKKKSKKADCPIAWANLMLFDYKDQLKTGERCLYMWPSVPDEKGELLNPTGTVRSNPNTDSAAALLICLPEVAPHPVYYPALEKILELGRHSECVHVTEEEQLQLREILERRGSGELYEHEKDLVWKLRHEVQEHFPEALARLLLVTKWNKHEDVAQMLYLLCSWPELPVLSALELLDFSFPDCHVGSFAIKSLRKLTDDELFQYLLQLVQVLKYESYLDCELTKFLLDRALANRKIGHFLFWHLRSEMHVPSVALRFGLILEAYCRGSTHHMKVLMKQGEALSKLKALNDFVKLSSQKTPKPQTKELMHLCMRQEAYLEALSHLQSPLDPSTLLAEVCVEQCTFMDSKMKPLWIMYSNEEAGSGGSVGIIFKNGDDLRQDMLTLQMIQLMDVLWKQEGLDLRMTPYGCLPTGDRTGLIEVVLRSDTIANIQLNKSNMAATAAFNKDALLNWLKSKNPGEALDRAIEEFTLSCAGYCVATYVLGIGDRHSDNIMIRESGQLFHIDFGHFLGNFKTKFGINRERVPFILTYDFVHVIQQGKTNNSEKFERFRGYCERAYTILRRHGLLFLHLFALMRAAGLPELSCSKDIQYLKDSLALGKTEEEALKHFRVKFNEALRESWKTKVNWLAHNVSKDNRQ
T1 sequence (P27986 whole entry partner): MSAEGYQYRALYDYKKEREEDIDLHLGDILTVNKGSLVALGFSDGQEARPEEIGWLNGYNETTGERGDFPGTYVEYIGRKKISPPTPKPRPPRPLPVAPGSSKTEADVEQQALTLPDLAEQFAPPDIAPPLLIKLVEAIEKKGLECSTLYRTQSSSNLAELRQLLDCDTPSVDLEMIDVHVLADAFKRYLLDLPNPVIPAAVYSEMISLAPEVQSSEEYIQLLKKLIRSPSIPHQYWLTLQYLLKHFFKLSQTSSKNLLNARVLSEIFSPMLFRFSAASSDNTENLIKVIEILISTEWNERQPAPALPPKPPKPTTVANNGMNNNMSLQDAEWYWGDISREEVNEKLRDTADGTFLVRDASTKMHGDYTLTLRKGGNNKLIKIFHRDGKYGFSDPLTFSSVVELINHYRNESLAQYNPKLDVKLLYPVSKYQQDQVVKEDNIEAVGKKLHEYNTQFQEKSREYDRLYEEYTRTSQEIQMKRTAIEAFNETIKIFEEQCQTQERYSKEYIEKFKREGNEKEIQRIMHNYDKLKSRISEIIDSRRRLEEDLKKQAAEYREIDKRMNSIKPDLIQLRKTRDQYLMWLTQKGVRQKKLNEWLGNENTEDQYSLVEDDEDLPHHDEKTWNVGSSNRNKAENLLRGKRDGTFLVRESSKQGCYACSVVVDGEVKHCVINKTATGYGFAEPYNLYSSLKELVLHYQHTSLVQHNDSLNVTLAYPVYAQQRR

Row | Compound | pIC50 [1] | pIC50 [2] | pIC50 [3] | pIC50 [4] | pIC50 [5] | pIC50 [6]
1 | C[C@H]1CC[C@H](n2c(=O)c(C#N)cc3cnc(Nc4cccc(C(N)=O)c4)nc32)CC1 [Compound No. 4, 3-((6-cyano-8-((1r,4r)-4-methylcyclohexyl)-7-oxo-7,8-dihydropyrido[2,3-d]pyrimidin-2-yl)amino)benzamide] | 5.56 |  |  |  |  | 9.00
2 | N#Cc1cc2cnc(Nc3ccc(S(=O)(=O)N4CCC(O)CC4)cc3)nc2n(C2CCCC2)c1=O [Compound No. 14, 8-cyclopentyl-2-((4-((4-hydroxypiperidin-1-yl)sulfonyl)phenyl)amino)-7-oxo-7,8-dihydropyrido[2,3-d]pyrimidine-6-carbonitrile] | 6.01 |  |  |  |  | 8.60
3 | N#Cc1cc2cnc(Nc3ccc4c(c3)NC(=O)CC4)nc2n(C2CCCC2)c1=O [Compound No. 9, 8-cyclopentyl-7-oxo-2-((2-oxo-1,2,3,4-tetrahydroquinolin-7-yl)amino)-7,8-dihydropyrido[2,3-d]pyrimidine-6-carbonitrile] | 6.02 |  |  |  |  | > 9.00
4 | CN1CCN(c2ccc(Nc3ccc4cc(C#N)c(=O)n(C5CCCC5)c4n3)cc2)CC1 [Compound No. 96, 1-cyclopentyl-7-((4-(4-methylpiperazin-1-yl)phenyl)amino)-2-oxo-1,2-dihydro-1,8-naphthyridine-3-carbonitrile] | < 4.30 | 6.81 | < 6.70 | 5.77 | 5.61 | 
5 | CN1CCC(c2ccc(Nc3ccc4cc(C#N)c(=O)n(C5CCCC5)c4n3)cc2)CC1 [Compound No. 98, 1-cyclopentyl-7-((4-(1-methylpiperidin-4-yl)phenyl)amino)-2-oxo-1,2-dihydro-1,8-naphthyridine-3-carbonitrile] | < 4.30 | < 6.70 | < 6.70 | 5.84 | 5.76 | 
6 | CN1CCN(S(=O)(=O)c2ccc(Nc3ncc4cc(C#N)c(=O)n(C5CCCC5)c4n3)cc2)CC1 [Compound No. 15, 8-cyclopentyl-2-((4-((4-methylpiperazin-1-yl)sulfonyl)phenyl)amino)-7-oxo-7,8-dihydropyrido[2,3-d]pyrimidine-6-carbonitrile] | 5.43 |  |  |  |  | 8.26
7 | N#Cc1cc2cnc(Nc3ccc4c(c3)NC(=O)C4)nc2n(C2CCCC2)c1=O [Compound No. 19, 8-cyclopentyl-7-oxo-2-((2-oxoindolin-6-yl)amino)-7,8-dihydropyrido[2,3-d]pyrimidine-6-carbonitrile] |  | 7.42 | 7.46 |  | 5.63 | > 9.00
8 | CC1CN(c2ccc(Nc3ncc4cc(C#N)c(=O)n(C5CCCC5)c4n3)nc2)CCN1 (stereo not shown) [Compound No. 23, 8-cyclopentyl-2-((5-(3-methylpiperazin-1-yl)pyridin-2-yl)amino)-7-oxo-7,8-dihydropyrido[2,3-d]pyrimidine-6-carbonitrile] |  | 8.15 | 7.15 | 4.91 | 6.12 | 7.28
9 | N#Cc1cc2cnc(Nc3ccc(N4CCNCC4)cc3F)nc2n(C2CCCC2)c1=O [Compound No. 26, 8-cyclopentyl-2-((2-fluoro-4-(piperazin-1-yl)phenyl)amino)-7-oxo-7,8-dihydropyrido[2,3-d]pyrimidine-6-carbonitrile] |  | 8.22 | 7.38 |  | 6.27 | 8.22
10 | CN1CCn2nc(Nc3ncc4cc(C#N)c(=O)n(C5CCCC5)c4n3)cc2C1 [Compound No. 52, 8-cyclopentyl-2-((5-methyl-4,5,6,7-tetrahydropyrazolo[1,5-a]pyrazin-2-yl)amino)-7-oxo-7,8-dihydropyrido[2,3-d]pyrimidine-6-carbonitrile] |  | 7.89 | 7.41 |  | 5.20 | 8.19

Continued, values first:

Row | pIC50 [1] | pIC50 [2] | pIC50 [3] | pIC50 [4] | pIC50 [5] | pIC50 [6] | Compound
11 | 6.53 | 7.66 | 6.89 | 6.06 | 6.30 |  | CCC(C)n1c(=O)c(C#N)cc2cnc(Nc3ccc4c(c3)CCNC4)nc21 (stereo not shown) [Compound No. 80, 8-(sec-butyl)-7-oxo-2-((1,2,3,4-tetrahydroisoquinolin-6-yl)amino)-7,8-dihydropyrido[2,3-d]pyrimidine-6-carbonitrile]
12 | < 4.30 | < 6.70 | < 6.70 | 5.90 | 5.79 |  | N#Cc1cc2ccc(Nc3ccc4c(c3)CCNC4)nc2n(C2CCCC2)c1=O [Compound No. 97, 1-cyclopentyl-2-oxo-7-((1,2,3,4-tetrahydroisoquinolin-6-yl)amino)-1,2-dihydro-1,8-naphthyridine-3-carbonitrile]
13 | 5.61 |  |  |  |  |  | CC1(C)CNCc2cc(Nc3ncc4cc(C#N)c(=O)n(C5CCCC5)c4n3)ccc21 [Compound No. 8, 8-cyclopentyl-2-((4,4-dimethyl-1,2,3,4-tetrahydroisoquinolin-7-yl)amino)-7-oxo-7,8-dihydropyrido[2,3-d]pyrimidine-6-carbonitrile]
14 | 6.08 | 7.60 | 6.75 | 5.86 | 6.27 |  | CCC(CC)n1c(=O)c(C#N)cc2cnc(Nc3ccc4c(c3)CCNC4)nc21 [Compound No. 86, 7-oxo-8-(pentan-3-yl)-2-((1,2,3,4-tetrahydroisoquinolin-6-yl)amino)-7,8-dihydropyrido[2,3-d]pyrimidine-6-carbonitrile]
15 |  | 7.46 | < 6.70 |  | < 4.52 | 8.30 | N#Cc1cc2cnc(Nc3ccc4c(c3)C(=O)NC4)nc2n(C2CCCC2)c1=O [Compound No. 24, 8-cyclopentyl-7-oxo-2-((3-oxoisoindolin-5-yl)amino)-7,8-dihydropyrido[2,3-d]pyrimidine-6-carbonitrile]

From patent US20220273659A1, “HETEROCYCLIC COMPOUNDS AS KINASE INHIBITORS” (NUVATION BIO INC., priority 2019, published 2022)
